# Tested on: human keratinocytes
# Assay: Cell protecting effect against UV-B in keratinocytes cultivated in vitro
# Assay type: cell-based
# Details: UV-B 50 mJ/cm2, concentration not given
# Excerpt: Background: UV-B rays cause inflammation (erythema, edema) by activating an enzyme, namely phospholipase A2 or PLA2, which removes arachidonic acid from the phospholipids of the cell membrane. Arachidonic acid is the precursor of the prostaglandins which cause inflammation and cell membrane damage; the prostaglandins E2 (=PGE2) are formed by cyclooxygenase. A UV-challenged cell produces another inflammation mediator, namely interleucine-1-alpha (1′ILα), which is capable of inducing the secretion of prostaglandins.
# Method: The effect of UV-B radiation was investigated in vitro in keratinocytes by determining the release of the cytoplasm enzyme LDH (lactate dehydrogenase) and the(1′ILα) content.
# To carry out the tests, a defined medium containing fetal calf serum was inoculated with the keratinocytes and Trichodyn® was added 72 hours after the inoculation.
# The keratinocytes were then exposed to a dose of UV-B (50 mJ/cm^2-tubes: DUKE GL40E).
# After incubation for another day at 37° C./5% CO2, the LDH content in the supernatant was determined. The LDH (lactate dehydrogenase) content was determined by an enzyme reaction (kit used to determine LDH levels from Roche). In addition , the (1′ILα) content was determined by the ELISA test. The number of adhering keratinocytes was determined (after trypsin treatment) with a particle counter.
smiles,measurement,setting,value
CC(=O)Oc1ccccc1C(=O)O [aspirin],(1′ILα) content,UV-B alone = 100,69%
same,Content of released LDH,UV-B alone = 100,66%
same,No. of keratinocytes,"control without UV-B = 100, UV-B alone 17",15%
